For one test, the target named is T1, human LXRβ (Homo sapiens, UniProt P55055).
T1 construct: biotin (biotinylated; biotinylation tag not described); made in house; host or cells: E. coli
T1 sequence (P55055 1-460): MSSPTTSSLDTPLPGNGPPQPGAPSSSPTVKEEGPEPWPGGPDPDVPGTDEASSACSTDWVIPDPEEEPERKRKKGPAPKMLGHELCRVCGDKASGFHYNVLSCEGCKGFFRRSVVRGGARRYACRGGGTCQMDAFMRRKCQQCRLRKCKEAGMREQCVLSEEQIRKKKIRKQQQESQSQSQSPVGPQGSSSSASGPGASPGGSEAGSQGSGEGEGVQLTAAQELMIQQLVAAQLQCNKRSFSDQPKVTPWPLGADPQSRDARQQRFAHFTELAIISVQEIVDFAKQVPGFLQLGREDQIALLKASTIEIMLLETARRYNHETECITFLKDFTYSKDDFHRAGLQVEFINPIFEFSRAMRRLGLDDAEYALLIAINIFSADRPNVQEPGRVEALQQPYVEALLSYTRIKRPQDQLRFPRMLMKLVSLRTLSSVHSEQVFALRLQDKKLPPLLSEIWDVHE
Put plainly: Ligand-binding test procedure for human LXRβ (3H T0901317 competition, flash plates). As to conditions: for Binding ratio a/b: IC50 (μM) LXRα binding/IC50 (μM) LXRβ binding; for IC50: biotinylated hLXRβ, tracer 3H T0901317. The method, then: Ligand-Binding Test Procedure for Human LXRβ.
Receptor source: E. coli extract from cells expressing biotinylated hLXRβ. Extract was made in a similar buffer as above, but with 50 mM TRIS.
(§1) Washed streptavidin and coated flash plates with wash buffer.
(§2) Diluted receptor extract to give Bmax ˜4000 cpm and add to the wells.
(§3) Wrapped the plates in aluminum foil and stored them at +4° C. over night.
(§4) Made a dilution series in DMSO of the test ligands.
(§5) Made a 5 nM solution of the radioactive tracer in buffer.
(§6) Mixed 250 μl diluted tracer with 5 μl of the test ligand from each concentration of the dilution series.
(§7) Washed the receptor-coated flash plates.
(§8) Added 200 μl per well of the ligand/radiolabel mixture to the receptor-coated flash plates.
(§9) Wrapped the plates in aluminum foil and incubate at +4° C. over night.
(§10) Aspirated wells, and wash the flashed plates. Sealed the plate.
(§11) Measured the remaining radioactivity in the plate.

The target in another test is T2, human LXRα (Homo sapiens, UniProt Q13133).
T2 construct: biotin (biotinylated; biotinylation tag not described); made in house; host or cells: E. coli
T2 sequence (Q13133 1-447): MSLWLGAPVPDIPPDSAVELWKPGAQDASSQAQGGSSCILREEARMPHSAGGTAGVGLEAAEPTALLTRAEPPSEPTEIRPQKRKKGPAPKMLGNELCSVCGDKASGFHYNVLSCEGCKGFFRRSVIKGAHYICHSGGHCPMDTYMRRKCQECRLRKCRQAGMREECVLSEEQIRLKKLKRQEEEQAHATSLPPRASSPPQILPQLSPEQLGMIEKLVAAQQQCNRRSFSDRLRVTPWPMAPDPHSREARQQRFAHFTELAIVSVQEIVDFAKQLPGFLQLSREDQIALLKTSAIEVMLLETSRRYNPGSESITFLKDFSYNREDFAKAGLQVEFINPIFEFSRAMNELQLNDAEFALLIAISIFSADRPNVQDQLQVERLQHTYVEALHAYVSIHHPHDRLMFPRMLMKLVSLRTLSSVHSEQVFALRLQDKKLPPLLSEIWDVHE
The experiment in a line: Ligand-binding test procedure for human LXRα (3H T0901317 competition, flash plates). The settings on record: biotinylated hLXRα, tracer 3H T0901317. The method, then:
Ligand-Binding Test Procedure for Human LXRα.
Receptor source: E. coli extract from cells expressing biotinylated hLXRα. Extract was made in a similar buffer as above, but with 50 mM TRIS.
as §1, §2, §3, §4, §5, §6, §7, §8, §9, §10, §11

Each structure is given as a SMILES string.

What is called IC50 is the concentration at which inhibition is half-maximal. A high value points to a need for much substance.

On to `Cc1cc(C(=O)O)ccc1NCc1cccc(-c2c(Cc3ccccc3)cnc3c(C(F)(F)F)cccc23)c1` [Example 53, 4-({3-[3-benzyl-8-(trifluoromethyl)quinolin-4-yl]benzyl}amino)-3-methylbenzoic acid], for which, on human LXRβ, the Binding ratio a/b was 5 and the IC50 was determined as 95 nM. The IC50 at human LXRα was 510 nM.
For the compound `O=C(O)[C@@H]1CCCN1C(=O)c1ccc(COc2cccc(-c3c(Cc4ccccc4)cnc4c(C(F)(F)F)cccc34)c2)cc1` [Example 54, 1-[4-({3-[3-benzyl-8-(trifluoromethyl)quinolin-4-yl]phenoxy}methyl)benzoyl]proline], at human LXRβ, the Binding ratio a/b is listed as 5 and the IC50 stood at 62 nM. Moreover, the IC50 on human LXRα is 321 nM.
In the case of `COc1cccc(NCc2cccc(-c3c(Cc4ccccc4)cnc4c(C(F)(F)F)cccc34)c2)c1C(=O)O` [Example 55, 2-({3-[3-benzyl-8-(trifluoromethyl)quinolin-4-yl]benzyl}amino)-6-methoxybenzoic acid], at human LXRβ, the Binding ratio a/b is 5 and the 50% inhibitory concentration (IC50) is 365 nM. Moreover, the IC50 at human LXRα is 1810 nM.
Consider `O=C(O)Cc1cccc2cc(OCc3cccc(-c4c(Cc5ccccc5)cnc5c(C(F)(F)F)cccc45)c3)ccc12` [Example 57, [6-({3-[3-benzyl-8-(trifluoromethyl)quinolin-4-yl]benzyl}oxy)-1-naphthyl]acetic acid], for which, at human LXRβ, the Binding ratio a/b is reported as 5 and the IC50 was 55 nM. On human LXRα, the IC50 is 267 nM.
Taken in the same sequence, the figures for `O=C(O)c1c(F)cccc1NCc1cccc(-c2c(Cc3ccccc3)cnc3c(C(F)(F)F)cccc23)c1` [Example 58, 2-({3-[3-benzyl-8-(trifluoromethyl)quinolin-4-yl]benzyl}amino)-6-fluorobenzoic acid] were 5, 25 nM and 121 nM.
For `O=C(O)[C@@H]1CCCN1C(=O)c1cccc(COc2cccc(-c3c(Cc4ccccc4)cnc4c(C(F)(F)F)cccc34)c2)c1` [Example 59, 1-[3-({3-[3-benzyl-8-(trifluoromethyl)quinolin-4-yl]phenoxy}methyl)benzoyl]proline] the same measures were 5, 98 nM and 467 nM.
For `O=C(O)C1CCN(C(=O)c2ccc(COc3cccc(-c4c(Cc5ccccc5)cnc5c(C(F)(F)F)cccc45)c3)cc2)CC1` [Example 60, 1-[4-({3-[3-benzyl-8-(trifluoromethyl)quinolin-4-yl]phenoxy}methyl)benzoyl]piperidine-4-carboxylic acid] the same measures were 5, 38 nM and 178 nM.
Regarding `O=C(N[C@@H](Cc1c[nH]cn1)C(=O)O)c1ccc(COc2cccc(-c3c(Cc4ccccc4)cnc4c(C(F)(F)F)cccc34)c2)cc1` [Example 61, N-[4-({3-[3-benzyl-8-(trifluoromethyl)quinolin-4-yl]phenoxy}methyl)benzoyl]histidine], at human LXRβ, the Binding ratio a/b came out at 5 and the IC50 is 145 nM. The same compound registered an IC50 at human LXRα of 681 nM.
For `Cc1ccc(CC(=O)O)cc1OCc1cccc(-c2c(Cc3ccccc3)cnc3c(C(F)(F)F)cccc23)c1` [Example 62, [3-({3-[3-benzyl-8-(trifluoromethyl)quinolin-4-yl]benzyl}oxy)-4-methylphenyl]acetic acid] the same measures were 5, 27 nM and 125 nM.
For `Cn1c(C(=O)O)cc2cc(NCc3cccc(-c4c(Cc5ccccc5)cnc5c(C(F)(F)F)cccc45)c3)ccc21` [Example 63, 5-({3-[3-benzyl-8-(trifluoromethyl)quinolin-4-yl]benzyl}amino)-1-methyl-1H-indole-2-carboxylic acid] the same measures were 5, 332 nM and 1530 nM.
Taken in the same sequence, the figures for `Cc1cc(NCc2cscc2-c2c(Cc3ccccc3)cnc3c(C(F)(F)F)cccc23)c(C)cc1CC(=O)O` [Example 64, {4-[({4-[3-benzyl-8-(trifluoromethyl)quinolin-4-yl]-3-thienyl}methyl)amino]-2,5-dimethylphenyl}acetic acid] were 4, 813 nM and 3520 nM.
In the case of `O=C(O)Cc1ccc(NCc2cccc(-c3ccnc4c(C(F)(F)F)cccc34)c2)c2ccccc12` [Example 65, [4-({3-[8-(trifluoromethyl)quinolin-4-yl]benzyl}amino)-1-naphthyl]acetic acid], on human LXRβ, the Binding ratio a/b came to 4 and the IC50 was found to be 2050 nM. On human LXRα, the IC50 stood at 8830 nM.
Taken in the same sequence, the figures for `C#CCC(C(=O)O)c1cccc2c(OCc3cccc(-c4ccnc5c(C(F)(F)F)cccc45)c3)cccc12` (stereo not drawn) [Example 66, 2-[5-({3-[8-(trifluoromethyl)quinolin-4-yl]benzyl}oxy)-1-naphthyl]pent-4-ynoic acid] were 4, 454 nM and 1950 nM.
Taken in the same sequence, the figures for `O=C(O)c1cc(Cl)c(OCc2cccc(-c3c(Cc4ccccc4)cnc4c(C(F)(F)F)cccc34)c2)c(Cl)c1` [Example 67, 4-({3-[3-benzyl-8-(trifluoromethyl)quinolin-4-yl]benzyl}oxy)-3,5-dichlorobenzoic acid] were 4, 47 nM and 203 nM.
For `O=C(O)Cc1cccc2cc(OCc3cccc(-c4ccnc5c(C(F)(F)F)cccc45)c3)ccc12` [Example 68, [6-({3-[8-(trifluoromethyl)quinolin-4-yl]benzyl}oxy)-1-naphthyl]acetic acid] the same measures were 4, 535 nM and 2290 nM.
On to `O=C(O)Cc1ccc2c(OCc3cccc(-c4c(Cc5ccccc5)cnc5c(C(F)(F)F)cccc45)c3)cccc2c1` [Example 69, [5-({3-[3-benzyl-8-(trifluoromethyl)quinolin-4-yl]benzyl}oxy)-2-naphthyl]acetic acid], for which, at human LXRβ, the Binding ratio a/b is recorded as 4 and the IC50 turned out to be 71 nM. The same compound registered an IC50 at human LXRα of 276 nM.
Taken in the same sequence, the figures for `Cc1cc(NCc2cc(-c3c(Cc4ccccc4)cnc4c(C(F)(F)F)cccc34)cs2)c(C)cc1CC(=O)O` [Example 70, {4-[({4-[3-benzyl-8-(trifluoromethyl)quinolin-4-yl]-2-thienyl}methyl)amino]-2,5-dimethylphenyl}acetic acid] were 4, 2 nM and 7 nM.
Taken in the same sequence, the figures for `Cc1ccc(NCc2cccc(-c3c(Cc4ccccc4)cnc4c(C(F)(F)F)cccc34)c2)c(C(=O)O)c1` [Example 71, 2-({3-[3-benzyl-8-(trifluoromethyl)quinolin-4-yl]benzyl}amino)-5-methylbenzoic acid] were 4, 558 nM and 2060 nM.
For `O=C(N[C@@H](Cc1c[nH]cn1)C(=O)O)c1cccc(COc2cccc(-c3c(Cc4ccccc4)cnc4c(C(F)(F)F)cccc34)c2)c1` [Example 72, N-[3-({3-[3-benzyl-8-(trifluoromethyl)quinolin-4-yl]phenoxy}methyl)benzoyl]histidine] the same measures were 4, 309 nM and 1100 nM.
Consider `Cc1cnc2c(C(F)(F)F)cccc2c1-c1cccc(CNc2ccc(C(=O)O)c(Cl)c2)c1` [Example 73, 2-chloro-4-({3-[3-methyl-8-(trifluoromethyl)quinolin-4-yl]benzyl}amino)benzoic acid], for which, on human LXRβ, the Binding ratio a/b was determined as 3 and the IC50 worked out at 183 nM. The IC50 on human LXRα is 613 nM.
Taken in the same sequence, the figures for `Cc1cc(NCc2cccc(-c3c(Cc4ccccc4)cnc4c(C(F)(F)F)cccc34)c2)ccc1C(=O)O` [Example 75, 4-({3-[3-benzyl-8-(trifluoromethyl)quinolin-4-yl]benzyl}amino)-2-methylbenzoic acid] were 3, 25 nM and 80 nM.

Source of the values: patent publication US20090069373A1, “Quinoline Acids” (Wyeth, priority 2007, published 2009).
